Reference: publication PMC7747594, “Protease-activated receptor-2 ligands reveal orthosteric and allosteric mechanisms of receptor inhibition” (Communications Biology, 2020)
“And” between values parts separate entries of the source, which are not always exact repeats. Identical values can stand only once.

How the values were obtained:
Format in all cases: in vivo
[1] = target: T1, PAR2 (Rattus norvegicus, UniProt Q63645); assay: PAR2 agonist (2f-LIGRLO-NH2)-induced rat paw oedema, paw swelling; conditions: for reduction of paw swelling: Wistar rats; for % swelling: 2f-induced rat paw oedema, individual animals (Figure 5a); for paw swelling: AZ3451 10 mg kg^−1 s.c. 30 min before, AZ8838 10 mg kg^−1 p.o. 2 h before 2f-LIGRLO-NH2; for anti-inflammatory activity in vivo after oral delivery / anti-inflammatory activity in vivo after subcutaneous injection: rat paw oedema
T1 construct: from tissue; host or cells: hind paw of male Wistar rats, in vivo
T1 sequence (Q63645 26-397): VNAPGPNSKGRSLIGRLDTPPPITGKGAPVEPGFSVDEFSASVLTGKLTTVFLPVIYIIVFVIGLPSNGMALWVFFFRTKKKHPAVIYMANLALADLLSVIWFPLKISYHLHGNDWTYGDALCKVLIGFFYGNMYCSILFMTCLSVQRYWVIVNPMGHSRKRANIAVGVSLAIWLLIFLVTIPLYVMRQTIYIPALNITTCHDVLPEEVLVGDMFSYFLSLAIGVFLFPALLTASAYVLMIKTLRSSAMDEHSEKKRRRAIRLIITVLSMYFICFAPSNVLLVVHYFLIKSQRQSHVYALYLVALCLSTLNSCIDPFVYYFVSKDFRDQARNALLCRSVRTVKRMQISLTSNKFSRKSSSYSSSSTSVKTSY
Protocol: Following Australian ethical standards, animals were air transported to the Institute for Bioengineering and Nanotechnology (University of Queensland, Australia). Animals were housed at room temperature and kept in 12 h light/dark cycles, with standard chow and water provided ad libitum, for at least a 48 h acclimatisation period before experiments. […] Saline only was given to sham paws. […] Control animals received either DMSO s.c. or 20% DMSO/80% olive oil via oral gavage. […] At the 30 min time point, a portion of animals was euthanised by CO2 inhalation and their paws collected for further analyses. All in vivo experimental procedures and animal handling were conducted with approval from the Animal Ethics Committee at the University of Queensland which follows NHMRC and ARRIVE guidelines. After experimentation, animals are humanely euthanized by CO2 inhalation as stipulated by the ethical agreements.
Experimental results were expressed as mean ± s.e.m. Graphs were plotted and data analysed using GraphPad Prism7. Statistical differences were assessed using Student’s t-tests (two-tailed) for data sets of two, one-way ANOVA for data sets of three or more with Bonferroni post-hoc tests, or two-way repeated-measures ANOVA with Tukey post-hoc tests for temporal data sets, as appropriate. Significance was set at ^+p < 0.05, ^++p < 0.01, ^+++p < 0.001, ^++++p < 0.0001 compared to sham, and *p < 0.05, **p < 0.01, ***p < 0.001, ****p < 0.0001 compared to disease control.

[2] = test system: neutrophils; assay: Immunohistochemistry, neutrophil elastase-positive (NE+ve) neutrophils in rat paw; conditions: for NE +ve cells (% max): 2f-induced rat paw oedema, individual animals (Figure 5h); for decrease of NE+ve cells by 2f-LIGRLO-NH2: pre-treatment, 30 min
Protocol: Tissues were then embedded with Optimal Cutting Temperature compound (OCT, Sakura Finetek, USA) and stored at −80 °C before making cryo-sections for histological analysis. Frozen sections (5 µm) were made using a cryostat-microtome (Leica Biosystems, Germany). […] Slides were then dehydrated and mounted in DPX mountant (Sigma-Aldrich, USA). For immunohistochemistry, slides were briefly rinsed with PBS to remove OCT. Except for tryptase staining, antigen retrieval was performed by incubating slides in citrate buffer (0.01 M, pH 6) at 95 °C for 20 min. They were then cooled down briefly and incubated with blocking medium (PBS, 0.1% Triton X-100, 10% horse serum) for 1 h at room temperature in a humidity chamber. Samples were incubated with primary antibody medium (PBS, 0.1% Triton X-100, 4% horse serum; 1:100 primary antibody including – histamine, neutrophil elastase or ED1 antibodies) overnight at 4 °C. The next day, samples were washed with PBS and incubated with the secondary antibody medium (PBS, 0.1% Triton X-100, 4% horse serum, detection antibody 1:200) for 2 h at room temperature. For tryptase staining, slides were incubated with primary antibody medium (as above with tryptase antibody at 1:100 dilution) for 4 h, then the secondary antibody medium for 2 h. Finally, slides were dried, counterstained with DAPI (Invitrogen, Australia), and sealed with clear nail polish. Primary antibodies for tryptase (AA1, ab2378, Abcam, Australia), histamine (H7403, Sigma-Aldrich, USA), neutrophil elastase (ab21595, Abcam, Australia) and ED1 (ab31630, Abcam, Australia) were purchased from commercial sources. Secondary detection antibody was purchased from Abcam, Australia.

[3] = test system: macrophages; assay: Immunohistochemistry, ED1-positive macrophages in rat paw; conditions: 30 min after agonist administration
Protocol: Rat paw tissues were collected, fixed in 10% neutral-buffered formalin (Sigma-Aldrich) for 2 h at 4 °C, transferred into falcon tubes containing 25% sucrose in PBS and left overnight at 4 °C. Tissues were then embedded with Optimal Cutting Temperature compound (OCT, Sakura Finetek, USA) and stored at −80 °C before making cryo-sections for histological analysis. Frozen sections (5 µm) were made using a cryostat-microtome (Leica Biosystems, Germany). For mast cell staining, slides were briefly washed with distilled water before staining with 0.1% toluidine blue (Sigma-Aldrich, pH 2.5) for 3 min. Slides were then dehydrated and mounted in DPX mountant (Sigma-Aldrich, USA). For immunohistochemistry, slides were briefly rinsed with PBS to remove OCT. Except for tryptase staining, antigen retrieval was performed by incubating slides in citrate buffer (0.01 M, pH 6) at 95 °C for 20 min. They were then cooled down briefly and incubated with blocking medium (PBS, 0.1% Triton X-100, 10% horse serum) for 1 h at room temperature in a humidity chamber. Samples were incubated with primary antibody medium (PBS, 0.1% Triton X-100, 4% horse serum; 1:100 primary antibody including – histamine, neutrophil elastase or ED1 antibodies) overnight at 4 °C. […] Tryptase-, neutrophil elastase- and ED1-positive cells were quantified using FIJI/ImageJ 1.42q software, USA.

| SMILES | reduction of paw swelling ([1]; 10 mg kg^−1 s.c. 30 min prior to 2f-LIGRLO-NH2 350 µg per paw) [%] | % swelling ([1]; Time 0 h) [%] | % swelling ([1]; Time 0.5 h) | % swelling ([1]; Time 1 h) | % swelling ([1]; Time 2 h) | % swelling ([1]; Time 4 h) | paw swelling [1] | anti-inflammatory activity in vivo after oral delivery [1] | anti-inflammatory activity in vivo after subcutaneous injection [1] | NE +ve cells (% max) [2] | decrease of NE+ve cells by 2f-LIGRLO-NH2 [2] | number of ED1 +ve cells in rat paw tissue compared to sham [3] | reduction of paw swelling ([1]; 10 mg kg^−1 p.o. 2 h prior to 2f-LIGRLO-NH2 350 µg per paw) [%] |
| --- | --- | --- | --- | --- | --- | --- | --- | --- | --- | --- | --- | --- | --- |
| C[C@@H](C1CCCCC1)n1c(-c2cc3c(cc2Br)OCO3)nc2cc(C(=O)Nc3ccc(C#N)cc3)ccc21 [AZ3451] | 60 | 0 | 48.3188% and 41.0115% and 38.4554% and 0.2044% | 31.4446% and 1.303% and 21.2807% and 5.312% | 1.7017% and 2.985% and 4.564% and -2.962% | 3.1932% and 1.708% and -5.029% and 2.557% | significantly reduced paw swelling | not after oral delivery | active in vivo | 135.782 % max and 55.9949 % max and 85.0488 % max and 57.3155 % max | partially inhibited | no significant difference |  |
| CCCc1cc(F)ccc1C(O)c1ncc[nH]1 (stereo not drawn) [AZ8838] |  | 0 | 24.8579% and 43.6327% and 41.4698% and 6.42% | 17.7725% and 33.5029% and 21.2259% and 5.253% | -0.8821% and 11.1837% and 14.1177% and -4.556% | -4.225% and 3.626% and 12.7121% and -4.201% | significantly reduced paw swelling | anti-inflammatory in vivo | anti-inflammatory in vivo | 83.5679 % max and 62.4433 % max and 139.912 % max and 107.932 % max and 66.1651 % max | partially inhibited | no significant difference | 60 |
